Some test systems named below: SARS2 PL^pro Y268C; SARS2 PL^pro Y268H; SARS2 PL^pro N267D; SARS2 PL^pro Y264H; SARS2 PL^pro N267K; SARS2 PL^pro P248L; SARS2 PL^pro Q269R; SARS2 PL^pro L162F.
Holding throughout (type): cell-based, SARS-CoV-2

Consider GRL0617, for which the decrease in potency with SARS2 PL^pro Y268C, in the assay on SARS2 PL^pro Y268H, in the assay on SARS2 PL^pro Y264H and with SARS2 PL^pro P248L was more than 10 fold each time. The “resistance phenotype in dose response curves” value with SARS2 PL^pro Y268C, in the assay on SARS2 PL^pro Y264H and with SARS2 PL^pro P248L was “near-complete resistance” in each case. Moreover, the “impact of mutation on GRL0617 potency” value with SARS2 PL^pro N267D, in the assay with SARS2 PL^pro N267K and with SARS2 PL^pro Q269R was “little impact” throughout. In addition, the “increase in IC50” value with SARS2 PL^pro L162F is approximately 8 fold.

For the origin of these results see paper PMC13499021, “Cellular Assays for Dynamic Quantification of Deubiquitinase Activity and Inhibition” (Journal of molecular biology, 2023).
